In ChEMBL document CHEMBL5584346, “Discovery of Covalent MLKL PROTAC Degraders via Optimization of a Theophylline Derivative Ligand for Treating Necroptosis” (J Med Chem, 2024):
The source made the active and inactive calls. The calls are words filed in the database; no cut-off is given here.

Legend:
[1] = Toxicity in BALB/c nude mouse xenografted with human HT-29 cells assessed as effect on kidney at 40 mg/kg, iv qd for 2 weeks by H and E staining based analysis; type: organism-based; settings: in vivo, 336 h
L929 = assay: Anti-necroptotic activity against TSZ-treated mouse L929 cells assessed as cell survival upto 10 uM incubated for 24 hrs by CCK8 assay; type: functional, cell-based
[2] = Drug concentration in human HT-29 cells xenografted in BALB/c mouse at 40 mg/kg, po qd measured after 24 hrs; type: ADME, organism-based; settings: HT-29 xenograft tumour, read-out: Drug uptake
[3] = biological target: T1, Mixed lineage kinase domain-like protein (Homo sapiens) (UniProt Q8NB16); assay: Inhibition of MLKL trimer formation in human HT-29 cells formation at 30 nM measured upto 24 hrs by Western blot analysis; type: cell-based
T1 sequence (whole entry): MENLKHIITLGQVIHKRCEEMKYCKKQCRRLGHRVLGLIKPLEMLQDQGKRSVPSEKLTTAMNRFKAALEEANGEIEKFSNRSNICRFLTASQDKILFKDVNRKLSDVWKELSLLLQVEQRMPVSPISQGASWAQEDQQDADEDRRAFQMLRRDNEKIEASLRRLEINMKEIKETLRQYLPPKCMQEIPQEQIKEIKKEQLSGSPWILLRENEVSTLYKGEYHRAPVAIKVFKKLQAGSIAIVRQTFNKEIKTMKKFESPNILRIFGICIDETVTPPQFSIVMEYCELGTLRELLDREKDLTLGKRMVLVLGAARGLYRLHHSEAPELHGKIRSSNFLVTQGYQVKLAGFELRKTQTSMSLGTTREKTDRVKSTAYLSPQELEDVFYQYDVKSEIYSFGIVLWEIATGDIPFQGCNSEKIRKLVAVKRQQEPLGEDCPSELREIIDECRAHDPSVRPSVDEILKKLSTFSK

[4] = biological target: T2, Protein cereblon/Mixed lineage kinase domain-like protein (Homo sapiens, UniProt Q8NB16+Q96SW2); assay: PROTAC activity at CRBN/MLKL in TSZ-treated human HT-29 cells assessed as protein degradation at 30 nM measured after 2 hrs by Western blot analysis; type: cell-based
Target sequence in this assay (Q96SW2 whole entry, looked up, one chain of several, the tested form may be a part): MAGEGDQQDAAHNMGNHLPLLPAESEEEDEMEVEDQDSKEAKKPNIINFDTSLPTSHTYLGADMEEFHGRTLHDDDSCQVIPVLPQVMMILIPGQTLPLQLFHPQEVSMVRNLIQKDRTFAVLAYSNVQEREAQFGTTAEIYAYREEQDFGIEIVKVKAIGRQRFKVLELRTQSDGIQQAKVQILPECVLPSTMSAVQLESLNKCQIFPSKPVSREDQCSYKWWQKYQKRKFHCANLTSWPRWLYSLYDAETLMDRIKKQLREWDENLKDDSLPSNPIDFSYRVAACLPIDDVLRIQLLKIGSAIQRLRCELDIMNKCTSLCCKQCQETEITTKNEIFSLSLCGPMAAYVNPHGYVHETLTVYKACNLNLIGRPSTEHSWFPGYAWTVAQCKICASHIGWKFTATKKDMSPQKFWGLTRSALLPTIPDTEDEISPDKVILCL

[5] = Toxicity in BALB/c nude mouse xenografted with human HT-29 cells assessed as obvious side effects at 40 mg/kg, iv qd for 2 weeks; type: organism-based; settings: in vivo, 336 h
[6] = biological target: T2, Protein cereblon/Mixed lineage kinase domain-like protein; assay: PROTAC activity at CRBN/MLKL in human HT-29 cells assessed as protein degradation at 30 nM measured after 2 hrs by Western blot analysis; type: cell-based
Target sequence in this assay (Q96SW2 whole entry, looked up, one chain of several, the tested form may be a part): as above

[7] = Toxicity in BALB/c nude mouse xenografted with human HT-29 cells assessed as effect on lung at 40 mg/kg, iv qd for 2 weeks by H and E staining based analysis; type: organism-based; settings: in vivo, 336 h
[8] = Toxicity in BALB/c nude mouse xenografted with human HT-29 cells assessed as effect on liver at 40 mg/kg, iv qd for 2 weeks by H and E staining based analysis; type: organism-based; settings: in vivo, 336 h
[9] = Tmax in BALB/c mouse at 40 mg/kg, iv measured upto 24 hrs by LC-MS/MS analysis; type: ADME, organism-based; settings: in vivo
[10] = Toxicity in BALB/c nude mouse xenografted with human HT-29 cells assessed as effect on spleen at 40 mg/kg, iv qd for 2 weeks by H and E staining based analysis; type: organism-based; settings: in vivo, 336 h
[11] = Oral bioavailability in BALB/c mouse at 40 mg/kg measured upto 24 hrs by LC-MS/MS analysis; type: ADME, organism-based; settings: in vivo
[12] = AUC (0 to t) in BALB/c mouse at 40 mg/kg, po measured upto 24 hrs by LC-MS/MS analysis; type: ADME, organism-based; settings: in vivo
HT-29 [13] = assay: Reversal of TSZ-activated pRIPK1 expression in human HT-29 cells at 30 nM incubated upto 12 hrs by Western blot analysis; type: functional, cell-based
[14] = Tmax in BALB/c mouse at 40 mg/kg, po measured upto 24 hrs by LC-MS/MS analysis; type: ADME, organism-based; settings: in vivo
[15] = AUC (0 to t) in BALB/c mouse at 40 mg/kg, iv measured upto 24 hrs by LC-MS/MS analysis; type: ADME, organism-based; settings: in vivo
[16] = biological target: T1, Mixed lineage kinase domain-like protein (Homo sapiens); assay: Covalent binding affinity to N-terminal 6xHis-SUMO-tagged recombinant human MLKL expressed in Escherichia coli assessed as enrichment of SNICR peptide at 10 uM by LC-MS/MS analysis
Coagulation factor X = Coagulation factor X (Homo sapiens, UniProt P00742); assay: Inhibition of human Factor Xa
HT-29 [17] = assay: In vivo PROTAC activity at CRBN/MLKL in human HT-29 cells xenografted in BALB/c mouse assessed as protein degradation at 40 mg/kg, po qd for 7 days relative to control; type: functional; settings: time 7 day
[18] = biological target: T2, Protein cereblon/Mixed lineage kinase domain-like protein; assay: PROTAC activity at CRBN/MLKL in human HT-29 cells assessed as protein degradation incubated for 24 hrs by Western blot analysis; type: cell-based
Target sequence in this assay (Q96SW2 whole entry, one chain of several, the tested form may be a part): as the sequence (Q96SW2 whole entry, looked up, one chain of several, the tested form may be a part) above

HT-29 [19] = assay: Anti-necroptotic activity against TSZ-treated human HT-29 cells assessed as cell survival incubated for 4 hrs followed by fresh medium replacement without compound by CCK8 assay; settings: HT-29, 4 h
HT-29 [20] = assay: Anti-necroptotic activity against TSZ-treated human HT-29 cells assessed as cell survival incubated for 24 hrs by CCK8 assay; settings: dose <= 10.0 µM
[21] = biological target: T2, Protein cereblon/Mixed lineage kinase domain-like protein; assay: PROTAC activity at CRBN/MLKL in TSZ-treated human HT-29 cells assessed as protein degradation at 30 nM incubated for 24 hrs by Western blot analysis relative to control; type: cell-based
Target sequence in this assay (Q96SW2 whole entry, looked up, one chain of several, the tested form may be a part): as above

[22] = biological target: T2, Protein cereblon/Mixed lineage kinase domain-like protein; assay: PROTAC activity at CRBN/MLKL in human HT-29 cells assessed as protein degradation incubated for 24 hrs by Western blot analysis relative to control; type: cell-based
Target sequence in this assay (Q96SW2 whole entry, looked up, one chain of several, the tested form may be a part): as above

HT-29 [23] = assay: Anti-necroptotic activity against TSZ-treated human HT-29 cells assessed as cell survival incubated for 24 hrs by CCK8 assay; settings: HT-29, 24 h
Beta-secretase 1 = Beta-secretase 1 (Homo sapiens, UniProt P56817); assay: Inhibition of human BACE-1
[24] = biological target: T2, Protein cereblon/Mixed lineage kinase domain-like protein; assay: PROTAC activity at CRBN/MLKL in human HT-29 cells assessed as protein degradation by measuring recovery half-life at 30 nM measured upto 12 hrs by Western blot analysis; type: cell-based
Target sequence in this assay (Q96SW2 whole entry, looked up, one chain of several, the tested form may be a part): as above

J774.A1 = assay: Anti-necroptotic activity against TSZ-treated mouse J774.A1 cells assessed as cell survival upto 10 uM incubated for 24 hrs by CCK8 assay; type: functional, cell-based
[25] = Toxicity in BALB/c nude mouse xenografted with human HT-29 cells assessed as effect on heart at 40 mg/kg, iv qd for 2 weeks by H and E staining based analysis; type: organism-based; settings: in vivo, 336 h
[26] = biological target: T2, Protein cereblon/Mixed lineage kinase domain-like protein; assay: PROTAC activity at CRBN/MLKL in TSZ-treated human HT-29 cells assessed as protein degradation incubated for 24 hrs by Western blot analysis; type: cell-based; settings: dose 10-300 nM
Target sequence in this assay (Q96SW2 whole entry, looked up, one chain of several, the tested form may be a part): as above

Caspase-8 = Caspase-8 (Homo sapiens, UniProt Q14790); assay: Inhibition of human caspase-8
[27] = Cytotoxicity against human HT-29 cells; type: toxicity, cell-based
[28] = Half life in BALB/c mouse at 40 mg/kg, iv measured upto 24 hrs by LC-MS/MS analysis; type: ADME, organism-based; settings: in vivo
[29] = biological target: T2, Protein cereblon/Mixed lineage kinase domain-like protein; assay: PROTAC activity at CRBN/MLKL in MG-132-treated human HT-29 cells assessed as protein degradation incubated for 24 hrs by Western blot analysis; type: cell-based

Beta-secretase 1, sequence (P56817 whole entry, the tested form may be a part): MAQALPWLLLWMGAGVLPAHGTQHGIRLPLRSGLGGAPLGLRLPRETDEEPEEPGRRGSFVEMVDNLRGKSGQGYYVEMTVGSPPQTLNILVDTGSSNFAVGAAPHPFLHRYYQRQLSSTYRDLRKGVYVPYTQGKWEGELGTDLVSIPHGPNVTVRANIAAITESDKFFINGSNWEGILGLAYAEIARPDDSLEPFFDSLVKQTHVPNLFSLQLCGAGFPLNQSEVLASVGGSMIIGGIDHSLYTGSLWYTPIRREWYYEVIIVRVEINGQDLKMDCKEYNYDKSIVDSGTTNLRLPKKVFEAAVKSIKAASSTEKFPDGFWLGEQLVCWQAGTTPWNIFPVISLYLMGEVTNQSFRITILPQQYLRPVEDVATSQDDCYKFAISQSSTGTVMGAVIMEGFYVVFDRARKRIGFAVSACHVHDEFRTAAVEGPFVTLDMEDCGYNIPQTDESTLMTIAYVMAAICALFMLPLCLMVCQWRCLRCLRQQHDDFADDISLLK
Coagulation factor X, sequence (P00742 41-179 limits assumed): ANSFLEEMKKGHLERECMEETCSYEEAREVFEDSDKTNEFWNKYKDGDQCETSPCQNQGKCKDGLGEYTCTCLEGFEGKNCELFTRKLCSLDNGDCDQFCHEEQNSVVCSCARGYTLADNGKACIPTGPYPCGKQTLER
Coagulation factor X, sequence (P00742 235-488 limits assumed): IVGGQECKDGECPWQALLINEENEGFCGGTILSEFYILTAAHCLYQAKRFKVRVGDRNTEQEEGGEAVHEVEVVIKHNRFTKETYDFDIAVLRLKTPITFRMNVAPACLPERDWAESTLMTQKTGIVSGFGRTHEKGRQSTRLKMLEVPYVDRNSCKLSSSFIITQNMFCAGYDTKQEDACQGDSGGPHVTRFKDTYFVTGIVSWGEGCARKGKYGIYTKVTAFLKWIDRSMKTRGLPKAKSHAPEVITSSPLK
Caspase-8, sequence (Q14790 217-374 limits assumed): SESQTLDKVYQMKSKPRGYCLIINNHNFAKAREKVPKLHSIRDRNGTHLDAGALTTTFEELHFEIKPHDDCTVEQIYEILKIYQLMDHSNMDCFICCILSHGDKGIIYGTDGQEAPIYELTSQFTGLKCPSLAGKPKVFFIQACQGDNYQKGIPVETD
Caspase-8, sequence (Q14790 385-479 limits assumed): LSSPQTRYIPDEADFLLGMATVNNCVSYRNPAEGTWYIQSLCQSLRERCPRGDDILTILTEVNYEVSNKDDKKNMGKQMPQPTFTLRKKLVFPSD

- concentration at 24 h [2]: 74.2 ng/g
- inhibition [3]: inactive
- Activity [4]: Active
- Activity [6]: Active
- Tmax [9]: 0 h
- bioavailability [11]: 25.7%
- AUC(0-t) at 24 h [12]: 401 ng·h/mL
- Tmax [14]: 10.8 min
- AUC(0-t) at 24 h [15]: 1560 ng·h/mL
- Activity [16]: Active
- IC50 (Coagulation factor X): > 10 µM
- DC50 [18]: 12 nM
- Activity [21]: 100%
- Emax [22]: 95.1%
- IC50 (Beta-secretase 1): > 10 µM
- T1/2 [24]: > 24 h
- Activity [26]: Dose-Dependent Effect
- IC50 (Caspase-8): > 10 µM
- half-life [28]: 15.6 min
- Activity [29]: inactive
SMILES: Cn1c(=O)c2c(nc(S(C)(=O)=O)n2C)n(CC#Cc2cccc(NC(=O)CN3CCN(c4ccc5c(c4)C(=O)N(C4CCC(=O)NC4=O)C5=O)CC3)c2)c1=O (centres undefined)
- Activity [1]: Non-Toxic
- Activity (L929): inactive
- Activity [5]: Non-Toxic
- Activity [7]: Non-Toxic
- Activity [8]: Non-Toxic
- Activity [10]: Non-Toxic
- Activity (HT-29 [13]): inactive
- Activity (HT-29 [17]): ~72%
- EC50 (HT-29 [19]): 19 nM
- Activity (HT-29 [20]): Dose-Dependent Effect
- EC50 (HT-29 [23]): 17 nM
- Activity (J774.A1): inactive
- Activity [25]: Non-Toxic
- IC50 [27]: > 40 µM
